Data: patent US6770597B2, “Benzohydrazide derivatives as herbicides and desiccant compositions containing them” (Ishihara Sangyo Kaisha, Ltd., priority 2002, dated 2004)

How the values were obtained:
Format in all cases: in vivo
[1] = test system: ivyleaf morningglory (Ipomoea hederacea, IPOHE); assay: Greenhouse herbicide screen, pre-emerge application, phytotoxicity rating; conditions: PRE emergent, 14 days after application, rating scale 0-100
Text: (§1) A standard greenhouse herbicide activity screening system was used to evaluate the herbicidal efficacy and crop safety of these test compounds. Seven broadleaf weed species including redroot pigweed (Amaranthus retrofiexus, AMARE), velvetleaf (Abutilon theophrasti, ABUTH), sicklepod (Cassia obtusifolia, CASOB), ivyleaf morningglory (Ipomoea hederacea, IPOHE), lambsquarters (Chenopodium album, CHEAL), common ragweed (Ambrosia artemisiifolia L., AMBEL), and cocklebur (Xanthium strumarium, XANST) were used as test species. Four grass weed species including green foxtail (Setaria viridis, SETVI), barnyardgrass (Echinochloa crus-galli, ECHCG), johnsongrass (Sorghum halepense, SORHA), and large crabgrass (Digitaria sanguinalis, DIGSA) were also used. In addition, four crop species, field corn (Zea mays L., var. Dekalb 535, CORN), soybean (Glycine max L., var. Pella 86, SOY), upland rice (Oryza sp., var.Cocodrie, RICE) and wheat (Triticum aestivum L.) were included.
(§2) All plants were grown in 10 cm square plastic pots which were filled with a sandy loam soil mix. For pre-emerge tests, seeds were planted one day prior to application of the test compounds. For post-emerge tests, seeds were planted 8-21 days prior to the test to allow emergence and good foliage development prior to application of the test substances. At the time of the post-emerge application, plants of all species were usually at the 2-3 leaf stage of development.
(§3) All test compounds were dissolved in acetone and applied to the test units in a volume of 187 l/ha. Test materials were applied at rates ranging from 15 g ai/ha to 1000 g ai/ha using a track sprayer equipped with a TJ8001E even flow flat fan spray nozzle. Plants were arranged on a shelf so that the top of the canopy (post-emerge) or top of the soil surface (pre-emerge) was 40-45 cm below the nozzle. Pressurized air was used to force the test solution through the nozzle as it was mechanically advanced (via electrically driven chain drive) over the top of all test plants/pots. This application simulates a typical commercial field herbicide application.
(§4) Pre-emergence tests were top watered immediately after treatment to incorporate the test materials, then routinely top-watered for normal growth. Post-emerge test units were always bottom-watered.
(§5) At 14 days after application of the test materials, phytotoxicity ratings were recorded. A rating scale of 0-100 was used as previously described in Research Methods in Weed Science, 2nd edition, B. Truelove, Ed., Southern Weed Science Society, Auburn University, Auburn, Ala., 1977. Briefly, “0” corresponds to no damage and “100” corresponds to complete death of all plants in the test unit. This scale was used both to determine efficacy against weed species and damage to crop species. Herbicide activity data for various compounds of this invention, which are shown by compound No. in Tables 1-12, are shown in Tables 13 and 14.

[2] = test system: sicklepod (Cassia obtusifolia, CASOB); assay: as above; conditions: PRE emergent, 14 days after application, rating scale 0-100
Text: as §1, §2, §3, §4, §5

[3] = test system: large crabgrass (Digitaria sanguinalis, DIGSA); assay: as above; conditions: PRE emergent, 14 days after application, rating scale 0-100
Text: as §1, §2, §3, §4, §5

[4] = test system: barnyardgrass (Echinochloa crus-galli, ECHCG); assay: as above; conditions: PRE emergent, 14 days after application, rating scale 0-100
Text: as §1, §2, §3, §4, §5

[5] = test system: velvetleaf (Abutilon theophrasti, ABUTH); assay: as above; conditions: PRE emergent, 14 days after application, rating scale 0-100
Text: as §1, §2, §3, §4, §5

[6] = test system: johnsongrass (Sorghum halepense, SORHA); assay: as above; conditions: PRE emergent, 14 days after application, rating scale 0-100
Text: as §1, §2, §3, §4, §5

[7] = test system: green foxtail (Setaria viridis, SETVI); assay: as above; conditions: PRE emergent, 14 days after application, rating scale 0-100
Text: as §1, §2, §3, §4, §5

[8] = test system: redroot pigweed (Amaranthus retrofiexus, AMARE); assay: as above; conditions: PRE emergent, 14 days after application, rating scale 0-100
Text: as §1, §2, §3, §4, §5

[9] = test system: cocklebur (Xanthium strumarium, XANST); assay: as above; conditions: PRE emergent, 14 days after application, rating scale 0-100
Text: as §1, §2, §3, §4, §5

[10] = test system: common ragweed (Ambrosia artemisiifolia L., AMBEL); assay: as above; conditions: PRE emergent, 14 days after application, rating scale 0-100
Text: as §1, §2, §3, §4, §5

[11] = test system: lambsquarters (Chenopodium album, CHEAL); assay: as above; conditions: PRE emergent, 14 days after application, rating scale 0-100
Text: as §1, §2, §3, §4, §5

[12] = test system: ivyleaf morningglory (Ipomoea hederacea, IPOHE); assay: Greenhouse herbicide screen, post-emerge application, phytotoxicity rating; conditions: POST emergent, 14 days after application, scale 0-100
Text: as §1, §2, §3, §4, §5

[13] = test system: sicklepod (Cassia obtusifolia, CASOB); assay: as above; conditions: POST emergent, 14 days after application, scale 0-100
Text: as §1, §2, §3, §4, §5

[14] = test system: large crabgrass (Digitaria sanguinalis, DIGSA); assay: as above; conditions: POST emergent, 14 days after application, scale 0-100
Text: as §1, §2, §3, §4, §5

[15] = test system: barnyardgrass (Echinochloa crus-galli, ECHCG); assay: as above; conditions: POST emergent, 14 days after application, scale 0-100
Text: as §1, §2, §3, §4, §5

[16] = test system: velvetleaf (Abutilon theophrasti, ABUTH); assay: as above; conditions: POST emergent, 14 days after application, scale 0-100
Text: as §1, §2, §3, §4, §5

[17] = test system: johnsongrass (Sorghum halepense, SORHA); assay: as above; conditions: POST emergent, 14 days after application, scale 0-100
Text: as §1, §2, §3, §4, §5

[18] = test system: green foxtail (Setaria viridis, SETVI); assay: as above; conditions: POST emergent, 14 days after application, scale 0-100
Text: as §1, §2, §3, §4, §5

[19] = test system: redroot pigweed (Amaranthus retrofiexus, AMARE); assay: as above; conditions: POST emergent, 14 days after application
Text: as §1, §2, §3, §4, §5

[20] = test system: cocklebur (Xanthium strumarium, XANST); assay: as above; conditions: POST emergent, 14 days after application, scale 0-100
Text: as §1, §2, §3, §4, §5

[21] = test system: common ragweed (Ambrosia artemisiifolia L., AMBEL); assay: as above; conditions: POST emergent, 14 days after application, scale 0-100
Text: as §1, §2, §3, §4, §5

[22] = test system: lambsquarters (Chenopodium album, CHEAL); assay: as above; conditions: POST emergent, 14 days after application, scale 0-100
Text: as §1, §2, §3, §4, §5

[23] = test system: field corn (Zea mays L., var. Dekalb 535, CORN); assay: Greenhouse herbicide screen, pre-emerge application, crop damage rating; conditions: PRE emergent, 14 days after application, rating scale 0-100
Text: as §1, §2, §3, §4, §5

[24] = test system: upland rice (Oryza sp., var.Cocodrie, RICE); assay: as above; conditions: PRE emergent, 14 days after application, rating scale 0-100
Text: as §1, §2, §3, §4, §5

[25] = test system: field corn (Zea mays L., var. Dekalb 535, CORN); assay: Greenhouse herbicide screen, post-emerge application, crop damage rating; conditions: POST emergent, 14 days after application, scale 0-100
Text: as §1, §2, §3, §4, §5

[26] = test system: upland rice (Oryza sp., var.Cocodrie, RICE); assay: as above; conditions: POST emergent, 14 days after application, scale 0-100
Text: as §1, §2, §3, §4, §5

Cn1c(C(F)(F)F)cc(=O)n(-c2cc(C(=O)NN3CCCC3)c(Cl)cc2F)c1=O [Compound 1-11]
phytotoxicity rating IPOHE ([1]; 63 g ai/ha): 70
phytotoxicity rating IPOHE ([1]; 250 g ai/ha): 100
phytotoxicity rating CASOB ([2]; 63 g ai/ha): 70
phytotoxicity rating CASOB ([2]; 250 g ai/ha): 99
phytotoxicity rating DIGSA ([3]; 63 g ai/ha): 50
phytotoxicity rating DIGSA ([3]; 250 g ai/ha): 100
phytotoxicity rating ECHCG ([4]; 63 g ai/ha): 15
phytotoxicity rating ECHCG ([4]; 250 g ai/ha): 99
phytotoxicity rating ABUTH ([5]; 63 g ai/ha): 100
phytotoxicity rating ABUTH ([5]; 250 g ai/ha): 100
phytotoxicity rating SORHA ([6]; 63 g ai/ha): 35
phytotoxicity rating SORHA ([6]; 250 g ai/ha): 99
phytotoxicity rating SETVI ([7]; 63 g ai/ha): 50
phytotoxicity rating SETVI ([7]; 250 g ai/ha): 100
phytotoxicity rating AMARE ([8]; 63 g ai/ha): 100
phytotoxicity rating AMARE ([8]; 250 g ai/ha): 100
phytotoxicity rating XANST ([9]; 63 g ai/ha): 0
phytotoxicity rating XANST ([9]; 250 g ai/ha): 40
phytotoxicity rating AMBEL ([10]; 63 g ai/ha): 60
phytotoxicity rating AMBEL ([10]; 250 g ai/ha): 98
phytotoxicity rating CHEAL ([11]; 63 g ai/ha): 100
phytotoxicity rating CHEAL ([11]; 250 g ai/ha): 100
phytotoxicity rating IPOHE ([12]; 63 g ai/ha): 100
phytotoxicity rating IPOHE ([12]; 250 g ai/ha): 100
phytotoxicity rating CASOB ([13]; 63 g ai/ha): 15
phytotoxicity rating CASOB ([13]; 250 g ai/ha): 80
phytotoxicity rating DIGSA ([14]; 63 g ai/ha): 40
phytotoxicity rating DIGSA ([14]; 250 g ai/ha): 55
phytotoxicity rating ECHCO ([15]; 63 g ai/ha): 70
phytotoxicity rating ECHCO ([15]; 250 g ai/ha): 100
phytotoxicity rating ABUTH ([16]; 63 g ai/ha): 100
phytotoxicity rating ABUTH ([16]; 250 g ai/ha): 100
phytotoxicity rating SORHA ([17]; 63 g ai/ha): 70
phytotoxicity rating SORHA ([17]; 250 g ai/ha): 80
phytotoxicity rating SETVI ([18]; 63 g ai/ha): 50
phytotoxicity rating SETVI ([18]; 250 g ai/ha): 55
phytotoxicity rating AMARE ([19]; 63 g ai/ha, scale 0-100 (0 no damage, 100 complete death)): 100
phytotoxicity rating AMARE ([19]; 250 g ai/ha, scale 0-100): 100
phytotoxicity rating XANST ([20]; 63 g ai/ha): 75
phytotoxicity rating XANST ([20]; 250 g ai/ha): 100
phytotoxicity rating AMBEL ([21]; 63 g ai/ha): 99
phytotoxicity rating AMBEL ([21]; 250 g ai/ha): 100
phytotoxicity rating CHEAL ([22]; 63 g ai/ha): 90
phytotoxicity rating CHEAL ([22]; 250 g ai/ha): 100
crop damage rating CORN ([23]; 63 g ai/ha): 0
crop damage rating CORN ([23]; 250 g ai/ha): 50
crop damage rating RICE ([24]; 63 g ai/ha): 5
crop damage rating RICE ([24]; 250 g ai/ha): 55
crop damage rating CORN ([25]; 63 g ai/ha): 35
crop damage rating CORN ([25]; 250 g ai/ha): 95
crop damage rating RICE ([26]; 63 g ai/ha): 65
crop damage rating RICE ([26]; 250 g ai/ha): 65
